25 compounds from patent publication US10221215B2, “Hydrogen bond surrogate macrocycles as modulators of Ras” (New York University, priority 2011, dated 2019) can be followed below.

Non-standard residues stand in square brackets, D forms with d. Residues, ends and D or L forms follow the SMILES beside them. Aib = CC(C)(N)C(=O)O

The series is described as follows: Solubility of peptides and HBS helices. Format: physicochemical. The method, then: Design of Ras/Sos inhibitors was performed starting with the wild-type Sos929-944 α-H sequence. Additional modifications were introduced in order to improve the solubility of the HBS peptides. Charged residues were introduced at positions not involved in Ras binding. Computational alanine scanning was performed on two separate crystal structures (PDB codes: 1NVW and 1BKD) of the Ras/Sos complex to determine other important binding residues in the α-H helix that may be incorporated in the peptide mimetics. Additionally, non-essential β-branched residues (including threonine) in the wild-type α-H sequence were replaced with suitable residues to afford peptides with higher helical content (Table 1), as it was hypothesized that such modifications would improve α-helicity.
Take `CC[C@H](C)[C@H](NC(=O)CN1CC=CCCC(=O)N[C@@H](Cc2ccccc2)C(=O)N[C@@H](CCC(=O)O)C1=O)C(=O)N[C@@H](Cc1ccc(O)cc1)C(=O)N[C@@H](CCCNC(=N)N)C(=O)N[C@H](C(=O)N[C@@H](CC(=O)O)C(=O)N[C@H](C(=O)N[C@@H](CC(C)C)C(=O)N[C@@H](CCCNC(=N)N)C(=O)N[C@H](C(=O)N[C@@H](CCC(=O)O)C(=O)N[C@@H](CCC(=O)O)C(=O)NCC(=O)N[C@@H](CC(N)=O)C(N)=O)[C@@H](C)O)[C@@H](C)CC)[C@@H](C)O` [HBS 1]: the Solubility entry is on record as “partially”. Regarding `CC[C@H](C)[C@H](NC(=O)CN1CC=CCCC(=O)N[C@@H](Cc2ccccc2)C(=O)N[C@@H](CCC(=O)O)C1=O)C(=O)N[C@@H](Cc1ccc(O)cc1)C(=O)N[C@@H](CCCNC(=N)N)C(=O)N[C@H](C(=O)N[C@@H](CCC(=O)O)C(=O)N[C@@H](CC(C)C)C(=O)N[C@@H](CC(C)C)C(=O)N[C@@H](CCCCN)C(=O)N[C@@H](C)C(=O)N[C@@H](CCC(=O)O)C(=O)N[C@@H](CCC(=O)O)C(=O)N[C@@H](C)C(=O)N[C@@H](CC(N)=O)C(N)=O)[C@@H](C)O` [HBS 6], the Solubility entry is given as “soluble”. With `CC[C@H](C)[C@H](NC(=O)CN1CC=CCCC(=O)N[C@@H](Cc2ccccc2)C(=O)N[C@@H](CCC(=O)O)C1=O)C(=O)N[C@@H](Cc1ccc(O)cc1)C(=O)N[C@@H](CCCNC(=N)N)C(=O)N[C@@H](CC(C)C)C(=O)N[C@@H](CCC(=O)O)C(=O)N[C@@H](CC(C)C)C(=O)N[C@@H](CC(C)C)C(=O)N[C@@H](CCCCN)C(=O)N[C@@H](C)C(=O)N[C@@H](CCC(=O)O)C(=O)N[C@@H](CCC(=O)O)C(=O)N[C@@H](C)C(=O)N[C@@H](CC(N)=O)C(N)=O` [HBS 7], the Solubility result is “soluble”.

On to `CC[C@H](C)[C@H](NC(=O)CN1CC=CCCC(=O)N[C@@H](C)C(=O)N[C@@H](CCC(=O)O)C1=O)C(=O)N[C@@H](Cc1ccc(O)cc1)C(=O)N[C@@H](CCCNC(=N)N)C(=O)N[C@@H](CC(C)C)C(=O)N[C@@H](CCC(=O)O)C(=O)N[C@@H](CC(C)C)C(=O)N[C@@H](CC(C)C)C(=O)N[C@@H](CCCCN)C(=O)N[C@@H](C)C(=O)N[C@@H](CCC(=O)O)C(=O)N[C@@H](C)C(=O)N[C@@H](C)C(=O)N[C@@H](C)C(N)=O` [HBS 7^mut], for which the Solubility entry is “soluble”. Next, `CC[C@H](C)[C@H](NC(=O)CN1CC=CCCC(=O)N[C@@H](Cc2ccccc2)C(=O)N[C@@H](CCC(=O)O)C1=O)C(=O)N[C@@H](Cc1ccc(O)cc1)C(=O)N[C@@H](CCCNC(=N)N)C(=O)N[C@@H](CC(C)C)C(=O)N[C@@H](CCC(=O)O)C(=O)N[C@@H](CC(C)C)C(=O)N[C@@H](CC(C)C)C(=O)N[C@@H](CCCCN)C(N)=O` [HBS 8]: “soluble”; `CC(C)C[C@H](NC(=O)CN1CC=CCCC(=O)N[C@@H](Cc2ccccc2)C(=O)N[C@@H](CCC(=O)O)C1=O)C(=O)N[C@@H](CC(C)C)C(=O)N[C@@H](CCCNC(=N)N)C(=O)N[C@@H](CC(C)C)C(=O)N[C@@H](Cc1c[nH]c2ccccc12)C(=O)N[C@@H](CC(C)C)C(=O)N[C@@H](CCCNC(=N)N)C(=O)N[C@@H](CCCCN)C(=O)NC(C)(C)C(=O)N[C@@H](CCC(=O)O)C(=O)N[C@@H](CCC(=O)O)C(=O)N[C@@H](C)C(=O)N[C@@H](CC(N)=O)C(N)=O` [HBS 9]: “soluble”.

Turning to `CC(C)C[C@H](NC(=O)CN1CC=CCCC(=O)N[C@@H](Cc2ccccc2)C(=O)N[C@@H](CCC(=O)O)C1=O)C(=O)N[C@@H](CC(C)C)C(=O)N[C@@H](CCCNC(=N)N)C(=O)N[C@@H](CC(C)C)C(=O)N[C@@H](Cc1c[nH]c2ccccc12)C(=O)N[C@@H](CC(C)C)C(=O)N[C@@H](CCCNC(=N)N)C(=O)N[C@@H](CCCCN)C(=O)NC(C)(C)C(=O)N[C@@H](CCC(=O)O)C(=O)N[C@@H](CCC(=O)O)C(=O)NC(C)(C)C(=O)N[C@@H](CC(N)=O)C(N)=O` [HBS 10], the Solubility entry is on record as “soluble”. `CC[C@H](C)[C@H](NC(=O)CN1CC=CCCC(=O)N[C@@H](Cc2ccccc2)C(=O)N[C@@H](CCC(=O)O)C1=O)C(=O)N[C@@H](Cc1ccc(O)cc1)C(=O)N[C@@H](CCCNC(=N)N)C(=O)N[C@@H](CC(C)C)C(=O)N[C@@H](CCC(=O)O)C(=O)N[C@@H](CC(C)C)C(=O)N[C@@H](CC(C)C)C(=O)N[C@@H](CCCCN)C(=O)NC(C)(C)C(=O)N[C@@H](CCC(=O)O)C(=O)N[C@@H](CCC(=O)O)C(=O)NC(C)(C)C(=O)N[C@@H](CC(N)=O)C(N)=O` [HBS 11]: the Solubility result was “soluble”. With `CC(C)C[C@H](NC(=O)CN1CC=CCCC(=O)N[C@@H](Cc2ccccc2)C(=O)N[C@@H](CCC(=O)O)C1=O)C(=O)N[C@@H](CC(C)C)C(=O)N[C@@H](CCCNC(=N)N)C(=O)N[C@@H](CC(C)C)C(=O)N[C@@H](Cc1c[nH]c2ccccc12)C(=O)N[C@@H](CC(C)C)C(=O)N[C@@H](CCCNC(=N)N)C(=O)N[C@@H](CCCCN)C(=O)N[C@@H](C)C(=O)N[C@@H](CCC(=O)O)C(=O)N[C@@H](CCC(=O)O)C(=O)N[C@@H](C)C(=O)N[C@@H](CC(N)=O)C(N)=O` [HBS 12], the Solubility entry is “soluble”.

Turning to `CC[C@H](C)[C@H](NC(=O)[C@H](C)N1CC=CCCC(=O)N[C@@H](Cc2ccccc2)C(=O)N[C@@H](CCC(=O)O)C1=O)C(=O)N[C@@H](Cc1ccc(O)cc1)C(=O)N[C@@H](CCCNC(=N)N)C(=O)N[C@@H](CC(C)C)C(=O)N[C@@H](CCC(=O)O)C(=O)N[C@@H](CC(C)C)C(=O)N[C@@H](CC(C)C)C(=O)N[C@@H](CCCCN)C(=O)N[C@@H](C)C(=O)N[C@@H](CCC(=O)O)C(=O)N[C@@H](CCC(=O)O)C(=O)N[C@@H](C)C(=O)N[C@@H](CC(N)=O)C(N)=O` [HBS 13], the Solubility result is on record as “soluble”.

Consider `CC[C@H](C)[C@H](NC(=O)[C@H](C)N1CC=CCCC(=O)N[C@@H](Cc2ccccc2)C(=O)N[C@@H](CCC(=O)O)C1=O)C(=O)N[C@@H](Cc1ccc(O)cc1)C(=O)N[C@@H](CCCNC(=N)N)C(=O)N[C@@H](CC(C)C)C(=O)N[C@@H](CCC(=O)O)C(=O)N[C@H]1CCCCNC(=O)CC[C@@H](C(=O)N[C@@H](CCC(=O)O)C(=O)N[C@@H](C)C(=O)N[C@@H](CC(N)=O)C(N)=O)NC(=O)[C@H](C)NC(=O)[C@H](CCCCN)NC(=O)[C@H](CC(C)C)NC1=O` [HBS 15], for which the Solubility entry was “soluble”. For `CC[C@H](C)[C@H](NC(=O)CN1CC=CCCC(=O)N[C@@H](Cc2ccccc2)C(=O)N[C@@H](CCC(=O)O)C1=O)C(=O)N[C@@H](Cc1ccc(O)cc1)C(=O)N[C@@H](CCCNC(=N)N)C(=O)N[C@@H](CC(C)C)C(=O)N[C@@H](CCC(=O)O)C(=O)N[C@@H](CCCCN)C(=O)N[C@@H](CC(C)C)C(=O)N[C@@H](CCCCN)C(=O)N[C@@H](C)C(=O)N[C@@H](CCC(=O)O)C(=O)N[C@@H](CCC(=O)O)C(=O)N[C@@H](C)C(=O)N[C@@H](CC(N)=O)C(=O)N[C@@H](CCCNC(=N)N)C(=O)N[C@@H](CCCNC(=N)N)C(N)=O` [HBS 16], the Solubility entry was “soluble”. For the compound `CC(=O)N[C@@H](Cc1ccccc1)C(=O)N[C@@H](CCC(=O)O)C(=O)NCC(=O)N[C@@H](CC(C)C)C(=O)N[C@@H](CC(C)C)C(=O)N[C@@H](CCCNC(=N)N)C(=O)N[C@@H](CC(C)C)C(=O)N[C@@H](Cc1c[nH]c2ccccc12)C(=O)N[C@@H](CC(C)C)C(=O)N[C@@H](CCCNC(=N)N)C(=O)N[C@@H](CCCCN)C(=O)NC(C)(C)C(=O)N[C@@H](CCC(=O)O)C(=O)N[C@@H](CCC(=O)O)C(=O)NC(C)(C)C(=O)N[C@@H](CC(N)=O)C(N)=O` [Peptide 10] (Ac-FEGLLRLWLRK[Aib]EE[Aib]N-NH2; N-terminus assumed), the Solubility entry is on record as “soluble”. As to `CC[C@H](C)[C@H](NC(=O)CNC(=O)[C@H](CCC(=O)O)NC(=O)[C@H](Cc1ccccc1)NC(C)=O)C(=O)N[C@@H](Cc1ccc(O)cc1)C(=O)N[C@@H](CCCNC(=N)N)C(=O)N[C@@H](CC(C)C)C(=O)N[C@@H](CCC(=O)O)C(=O)N[C@@H](CC(C)C)C(=O)N[C@@H](CC(C)C)C(=O)N[C@@H](CCCCN)C(=O)NC(C)(C)C(=O)N[C@@H](CCC(=O)O)C(=O)N[C@@H](CCC(=O)O)C(=O)NC(C)(C)C(=O)N[C@@H](CC(N)=O)C(N)=O` [Peptide 11] (Ac-FEGIYRLELLK[Aib]EE[Aib]N-NH2; N-terminus assumed), the Solubility result is reported as “soluble”. With `CC[C@H](C)[C@H](NC(=O)CNC(=O)[C@H](Cc1ccccc1)NC(=O)[C@H](Cc1ccccc1)NC(C)=O)C(=O)N[C@@H](Cc1ccc(O)cc1)C(=O)N[C@@H](CC(C)C)C(=O)N[C@H](C(=O)N[C@@H](CC(N)=O)C(=O)N[C@H](C(=O)N[C@@H](CC(C)C)C(=O)N[C@@H](CCCCN)C(=O)N[C@H](C(=O)N[C@@H](CCC(=O)O)C(=O)N[C@@H](CCC(=O)O)C(=O)NCC(=O)N[C@@H](CC(N)=O)C(N)=O)[C@@H](C)O)[C@@H](C)CC)[C@@H](C)O` [wt (Sos929-944), reference compound], the Solubility result is “insoluble”.

In the case of “Ac-AEGIYRADILRTEEGN-NH2 (N-terminus assumed) [Peptide 4]”, the Solubility entry is reported as “partially”. Take “Ac-AEGIYRTDILRTEEGN-NH2 (N-terminus assumed) [Peptide 3]”: the Solubility entry is “partially”. Turning to “Ac-FEAIYRLEKLKAEEAN-NH2 (N-terminus assumed) [Peptide 15]”, the Solubility entry is “soluble”.

In the case of “Ac-FEAIYRLELLKAEEAN-NH2 (N-terminus assumed) [Peptide 13]”, the Solubility entry is on record as “soluble”. As to “Ac-FEGIYRLELLK-NH2 (N-terminus assumed) [Peptide 8]”, the Solubility entry was “soluble”.

In the case of “Ac-FEGIYRLELLKAEEAN-NH2 (N-terminus assumed) [Peptide 7]”, the Solubility result is “soluble”.

As for “Ac-FEGIYRTDILR-NH2 (N-terminus assumed) [Peptide 5]”, the Solubility result is reported as “soluble”. On to “Ac-FEGIYRTDILRTEEGN-NH2 (N-terminus assumed) [Peptide 1]”, for which the Solubility entry is “partially”. Regarding “Ac-FEGIYRTELLKAEEAN-NH2 (N-terminus assumed) [Peptide 6]”, the Solubility result is listed as “soluble”.

Take “Ac-FEGLLRLWLRKAEEAN-NH2 (N-terminus assumed) [Peptide 12]”: the Solubility result is “soluble”.
